Test results as given in patent US20130158112A1, “COMPOSITIONS AND METHODS FOR INHIBITING BETA AMYLOID SECRETION” (priority 2011, published 2013).
Like-named read-outs stand apart in the source and are kept apart here.

What was measured:
Aβ secretion [1] = experiment: PKC inhibitors experiment on Aβ secretion; format: cell-based, human; details: for effect on basal Aβ secretion: PKC inhibitor alone; for effect of PKC inhibitor on compound 1 inhibited Aβ secretion: inhibitor given 30 min prior to compound 1
Experimental: (§1) H4βAPP695 wt cells, a human […] cell line stably transfected with a wtβAPP695 expression vector construct under the control of a CMV promoter (kindly provided by Dr. Chris Eckman from Mayo Clinic, Florida) were cultured as previously described. Twenty-four hours before drug treatment, the media was replaced with serum-free media. Cells were then incubated with drugs (dissolved in DMSO) or vehicle for 24 h for collection of conditioned media and cell lysates. For the PKC inhibitors experiment, three inhibitors were treated 30 min prior to drug challenge. Primary cortical neurons were prepared from embryonic day 18 APP and presenilin 1 (APPswe, PSEN1dE9) transgenic mice on the C57BL/6 genetic background (Jackson Laboratories, strain no. 5864) as previously described. THLE-3 human hepatoma cells (from ATCC) were plated in 24-well plates that were precoated with 10 μg/mL bovine serum albumin, 10 μg/mL fibronectin, and 30 μg/mL bovine type I collagen. The cells were grown in BEGM media (Clonetics) until confluent and treated with drugs at 20 μM for 24 h. This conditioned media was harvested, diluted 1:1 in serum-free medium, and incubated with H4βAPP695 wt cells for 24 h prior to analysis of secreted Aβ, which was compared to the effect of 10 μM drug treatments without prior incubation with the THLE-3 cells. Caco-2 cells (ATCC) were plated in 12-well plates with Transwell inserts (Costar) at 70000 cells per well and grown for 21 days. The media volume of the apical and basal chambers was 0.5 and 1.5 mL, respectively. Transepithelial resistance was measured in each well and found to be >160 Ω/cm^2. Drugs at 40 μM and 20 μg/mL of lucifer yellow were added in serum-free medium to the apical chamber. Four hours later, the basal chamber media was harvested and used to measure lucifer yellow fluorescence to confirm monolayer integrity as well as for treatment of H4βAPP695 wt cells for 24 h prior to analysis of secreted Aβ, which was compared to the effect of direct addition of 10 μM of the corresponding drug.
The tumor promoter phorbal myristate acetate is an activator of protein kinase C (PKC) that has been reported to activate α-secretase activity. Thus, we wanted to determine if protein kinase C inhibitors could block the effect of compound 1 on Aβ secretion.

Aβ secretion [2] = experiment: Secreted total Aβ ELISA in conditioned media of H4βAPP695 wt cells; format: cell-based, human; details: for inhibition at 10 µM / inhibition at 30 µM: Homo sapiens, 24 h, H4βAPP695 wt cells; for inhibition at 10 µM: read-out: Total Aβ (% decrease) 10 μM Mean; for inhibition at 30 µM: read-out: Total Aβ (% decrease) 30 μM Mean; for Aβ secretion inhibiting activity (structure activity summary): in words
In short: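 H4 […] cells stably expressing wild-type βAPP695 (CMV promoter), serum-starved 24 h, then exposed to drug in DMSO or vehicle for 24 h before Aβ in conditioned media was measured. Primary cortical neurons came from E18 APPswe/PSEN1dE9 mice on C57BL/6 background.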

H4βAPP695 wt cells [3] = details: human, 24 h
[4] = tested on: THLE-3 human hepatoma cells; experiment: Drug activity persistence after incubation with THLE-3 hepatoma cells; format: in vitro ADME; details: for inhibition at 10 µM: Homo sapiens, THLE3, 24 h; for % remaining Activity: after 24 h incubation with hepatoma cells
Experimental: as §1
To screen for resistance to metabolism, 1 and eight noncytotoxic analogues with >50% Aβ reducing activity (compounds 27, 29, 48, 52, 53, 65, 73, and 76) were incubated at 20 μM for 24 h with or without THLE-3 human hepatoma cells.

H4βAPP695 wt cells [5] = experiment: Cytotoxicity by total cell protein content (BCA) of H4βAPP695 wt cells; details: cytotoxicity
Caco-2 cells = experiment: Epithelial transcellular transport of drug activity through Caco-2 monolayers; format: in vitro ADME; details: for % theoretical activity: % of activity passing through Caco-2 monolayer; for inhibition at 10 µM / inhibition at up to 10 µM: Homo sapiens; for inhibition at 10 µM: Caco-2, 10 μM drug alone added directly to H4βAPP695 wt cells, read-out: transcellular transport No total Aβ (% decrease); for inhibition at up to 10 µM: Caco-2, 4 h, lower chamber media after 4 h on Caco-2 monolayer, 10 μM if in equilibrium, read-out: transcellular transport Yes total Aβ (% decrease)
Experimental: as §1
Monolayer integrity was confirmed by high levels of transcellular electrical resistance (>160 ohms/cm^2) and by transcellular impermeability to the fluorescent dye lucifer yellow. […] The concentration of each compound added to the upper chamber would lead to 10 μM in the lower chamber if equilibration was complete, and thus the activity of the lower chamber media was compared to the activity of 10 μM drug added directly to the H4βAPP695 wt cells. […] Compound 1 crossed the monolayer and the bottom chamber media led to a 27% reduction in Aβ production, yielding 38% of the theoretical activity. The compound with the most activity in the lower chamber was compound 48, which decreased Aβ production by 50%, with 71% of its theoretical activity. […] On the basis of the combined activity data from these last two studies, compound 48 was selected as the lead drug for in vivo study.

[6] = 10 μM on H4 cells, without preincubation with hepatoma cells, read-out: hepatoma incubation No total Aβ (% decrease)
[7] = 20 μM preincubated 24 h with THLE-3 hepatoma cells, diluted to 10 μM on H4 cells, read-out: hepatoma incubation Yes total Aβ (% decrease)

In the case of `CC(=O)c1c(O)c(C)c(O)c(Cc2c(O)c3c(c(C(=O)/C=C/c4ccccc4)c2O)OC(C)(C)C=C3)c1O` [Rottlerin], the “effect on basal Aβ secretion” value (Aβ secretion [1]) is reported as “reduced Aβ secretion” and the “effect of PKC inhibitor on compound 1 inhibited Aβ secretion” value (“effect of PKC inhibitor” below) (Aβ secretion [1]) is reported as “did not significantly alter the effect of compound 1”.
With `O=C(NCCSCc1cccc(Cl)c1)c1c([N+](=O)[O-])cccc1[N+](=O)[O-]` [Compound 56, N-[2-(3-Chloro-benzylsulfanyl)-ethyl]-2,6-dinitro-benzamide] the inhibition at 10 µM (Aβ secretion [2]) was 28.8%, the inhibition at 30 µM (Aβ secretion [2]) was 52.9% and the “Aβ secretion inhibiting activity (structure activity summary)” value (“Aβ secretion inhibiting activity” for short) (Aβ secretion [2]) was “not well tolerated”. The melting point was 139 to 140 °C, the “Cell protein (% decrease) 10 μM Mean” value (H4βAPP695 wt cells [3]) was 0.1% and the “Cell protein (% decrease) 30 μM Mean” value (H4βAPP695 wt cells [3]) was 17.8%.
In the case of `O=C(NCCSCc1cccc(O)c1)c1c(Cl)cccc1Cl` [Compound 29, 2,6-dichloro-N-[2-(3-hydroxy-benzylsulfanyl)-ethyl]-benzamide], the inhibition at 10 µM (Aβ secretion [2]) is reported as greater than 50%, the inhibition at 30 µM (Aβ secretion [2]) is reported as 67.7% and the “Aβ secretion inhibiting activity” value (Aβ secretion [2]) is reported as “good activity”. The inhibition at 10 µM [4, 6] was 56.4%, the inhibition at 10 µM [4, 7] was 23.1% and the “% remaining Activity” value [4] was 41%. The “Cell protein (% decrease) 10 μM Mean” value (H4βAPP695 wt cells [5]) was 6.3% and the “Cell protein (% decrease) 30 μM Mean” value (H4βAPP695 wt cells [5]) was 6.6%.
With `O=C(NCCSCc1ccccc1Cl)c1c(Cl)cccc1Cl` [Compound 76, 2,6-Dichloro-N-[2-(2-chloro-benzylsulfanyl)-ethyl]-benzamide] the inhibition at 30 µM (Aβ secretion [2]) was 80%, the “Aβ secretion inhibiting activity” value (Aβ secretion [2]) was “retained activity” and the inhibition at 10 µM [4, 6] was 75.6%. For the same compound, the inhibition at 10 µM [4, 7] was 49%, the “% remaining Activity” value [4] was 65% and the “% theoretical activity” value (Caco-2 cells) was 41.8%. For the same compound, the inhibition at 10 µM (Caco-2 cells) was 75.6%, the inhibition at up to 10 µM (Caco-2 cells) was 32% and the melting point was 110 to 112 °C. For the same compound, the “Cell protein (% decrease) 10 μM Mean” value (H4βAPP695 wt cells [5]) was −0.5% and the “Cell protein (% decrease) 30 μM Mean” value (H4βAPP695 wt cells [5]) was −11%.
With `COc1cccc(CSCCNC(=O)c2c([N+](=O)[O-])cccc2[N+](=O)[O-])c1` [Compound 37, N-[2-(3-Methoxy-benzylsulfanyl)-ethyl]-2,6-dinitro-benzamide] the inhibition at 10 µM (Aβ secretion [2]) was -14.1%, the inhibition at 30 µM (Aβ secretion [2]) was -2.8% and the “Aβ secretion inhibiting activity” value (Aβ secretion [2]) was “not well tolerated”. For the same compound, the melting point was 69 to 71 °C, the “Cell protein (% decrease) 10 μM Mean” value (H4βAPP695 wt cells [3]) was 3.7% and the “Cell protein (% decrease) 30 μM Mean” value (H4βAPP695 wt cells [3]) was −3.8%.
For `COc1cccc(CSCCNC(=O)c2c(Cl)cccc2Cl)c1OC` [Compound 52, 2,6-Dichloro-N-[2-(2,3-dimethoxy-benzylsulfanyl)-ethyl]-benzamide], the inhibition at 10 µM (Aβ secretion [2]) was greater than 50%, the inhibition at 30 µM (Aβ secretion [2]) was 72.8% and the “Aβ secretion inhibiting activity” value (Aβ secretion [2]) was “could be tolerated”. The inhibition at 10 µM [4, 6] was 57.8%, the inhibition at 10 µM [4, 7] was 1.9% and the “% theoretical activity” value (Caco-2 cells) was 45.9%. It also gave an inhibition at 10 µM (Caco-2 cells) of 57.8%, an inhibition at up to 10 µM (Caco-2 cells) of 26.5% and a melting point of 108 to 110 °C. For the same compound, the “Cell protein (% decrease) 10 μM Mean” value (H4βAPP695 wt cells [5]) was −0.1% and the “Cell protein (% decrease) 30 μM Mean” value (H4βAPP695 wt cells [5]) was 8.7%.
With `O=C(NCCSCc1cccc(I)c1)c1c(Cl)cccc1Cl` [Compound 53, 2,6-Dichloro-N-[2-(3-iodo-benzylsulfanyl)-ethyl]-benzamide] the inhibition at 30 µM (Aβ secretion [2]) was 88.3%, the “Aβ secretion inhibiting activity” value (Aβ secretion [2]) was “good activity” and the “hepatoma incubation Yes total Aβ (% decrease)” value ([4]; 20 μM preincubated 24 h with THLE-3 hepatoma cells, diluted to 10 μM on H4 cells) was 40.0%. The inhibition at 10 µM [4, 6] was 84.4%, the inhibition at 10 µM [4, 7] was 40% and the “% remaining Activity” value [4] was 47%. For the same compound, the “% theoretical activity” value (Caco-2 cells) was 1.3%, the inhibition at 10 µM (Caco-2 cells) was 84.4% and the inhibition at up to 10 µM (Caco-2 cells) was 1%. The melting point was 75 to 78 °C, the “Cell protein (% decrease) 10 μM Mean” value (H4βAPP695 wt cells [5]) was 9.2% and the “Cell protein (% decrease) 30 μM Mean” value (H4βAPP695 wt cells [5]) was 19%.
For `COc1cccc(CSCCNC(=O)c2c(Cl)cccc2Cl)c1` [Compound 27, 2,6-dichloro-N-[2-(3-methoxy-benzylsulfanyl)-ethyl]-benzamide], the inhibition at 10 µM (Aβ secretion [2]) was greater than 50%, the inhibition at 30 µM (Aβ secretion [2]) was 73.9% and the “Aβ secretion inhibiting activity” value (Aβ secretion [2]) was “good activity”. The inhibition at 10 µM [4, 6] was 60.6%, the inhibition at 10 µM [4, 7] was 22.2% and the “% remaining Activity” value [4] was 37%. For the same compound, the “% theoretical activity” value (Caco-2 cells) was 29.5%, the inhibition at 10 µM (Caco-2 cells) was 60.6% and the inhibition at up to 10 µM (Caco-2 cells) was 17.9%. For the same compound, the “Cell protein (% decrease) 10 μM Mean” value (H4βAPP695 wt cells [5]) was 8.4% and the “Cell protein (% decrease) 30 μM Mean” value (H4βAPP695 wt cells [5]) was 13.2%.
For `CN(C)CCCn1cc(C2=C(c3c[nH]c4ccccc34)C(=O)NC2=O)c2ccccc21` [Bisindolylmaleimide I], the “effect on basal Aβ secretion” value (Aβ secretion [1]) was “no effect” and the “effect of PKC inhibitor” value (Aβ secretion [1]) was “no effect”.
For Calphostin C, the “effect on basal Aβ secretion” value (Aβ secretion [1]) was “no effect” and the “effect of PKC inhibitor” value (Aβ secretion [1]) was “no effect”.
In the case of `O=C(NCCSCc1ccccc1)c1c(Cl)cccc1Cl` [Compound 65, N-(2-Benzylsulfanyl-ethyl)-2,6-dichloro-benzamide], the inhibition at 10 µM (Aβ secretion [2]) is reported as greater than 50%, the inhibition at 30 µM (Aβ secretion [2]) is reported as 58.6% and the “Aβ secretion inhibiting activity” value (Aβ secretion [2]) is reported as “retained activity”. The inhibition at 10 µM [4, 6] was 51.6%, the inhibition at 10 µM [4, 7] was 27% and the “% remaining Activity” value [4] was 52%. For the same compound, the “% theoretical activity” value (Caco-2 cells) was 60.1%, the inhibition at 10 µM (Caco-2 cells) was 51.6% and the inhibition at up to 10 µM (Caco-2 cells) was 31%. For the same compound, the melting point was 96 to 97 °C, the “Cell protein (% decrease) 10 μM Mean” value (H4βAPP695 wt cells [5]) was −1.1% and the “Cell protein (% decrease) 30 μM Mean” value (H4βAPP695 wt cells [5]) was −0.7%.
With `COc1cc(Cl)cc(CSCCNC(=O)c2c(Cl)cccc2Cl)c1` [Compound 73, 2,6-Dichloro-N-[2-(3-chloro-5-methoxy-benzylsulfanyl)-ethyl]-benzamide] the inhibition at 10 µM (Aβ secretion [2]) was greater than 50%, the inhibition at 30 µM (Aβ secretion [2]) was 81% and the “Aβ secretion inhibiting activity” value (Aβ secretion [2]) was “could be tolerated”. For the same compound, the inhibition at 10 µM [4, 6] was 67.7%, the inhibition at 10 µM [4, 7] was 33.5% and the “% remaining Activity” value [4] was 49%. The “% theoretical activity” value (Caco-2 cells) was 4.0%, the inhibition at 10 µM (Caco-2 cells) was 67.7% and the inhibition at up to 10 µM (Caco-2 cells) was 2.7%. The melting point was 83 to 84 °C, the “Cell protein (% decrease) 10 μM Mean” value (H4βAPP695 wt cells [5]) was 0.9% and the “Cell protein (% decrease) 30 μM Mean” value (H4βAPP695 wt cells [5]) was 0.4%.
